We go through 28 compounds from ChEMBL document CHEMBL1139776, “Development of carboxylic acid replacements in indole-N-acetamide inhibitors of hepatitis C virus NS5B polymerase” (Bioorg Med Chem Lett, 2007).

Data set [1] in a line: Inhibition of HCV NS5B deltaC RNA polymerase. On the set-up: species or system Hepacivirus hominis.
Data set [2] concerns Hepatitis C virus. The data set can be described thus: Antiviral activity against HCV in Huh7 cells assessed as inhibition of viral replication in presence of 10% fetal calf serum. The class given is functional, organism-based, Hepacivirus hominis. The conditions noted are these: Huh-7.
The nature of data set [3]: Terminal phase half life in rat at 3 mg/kg, iv. The class given is ADME, organism-based. On the set-up: dose 3 mg/kg, route intravenous. The conditions noted are these: in vivo.
Data set [4] is described as follows: Plasma clearance in rat at 3 mg/kg, po or 3 mg/kg, iv. It counts as ADME, organism-based.
Data set [5] is described as follows: AUC in rat at 3 mg/kg, po. It counts as ADME, organism-based. On the set-up: dose 3 mg/kg, route oral. The conditions noted are these: plasma.
For data set [6], the system named is Hepatitis C virus. Description: Antiviral activity against HCV in Huh7 cells assessed as inhibition of viral replication in absence of serum. The conditions noted are these: Huh-7. It counts as functional, organism-based, Hepacivirus hominis.
Data set [7] in a line: Oral bioavailability in rat at 3 mg/kg. The conditions noted are these: in vivo. It counts as ADME, organism-based.
A short description of data set [8]: Dissociation constant, pKa of the compound. The class given is physicochemical.
The species named for data set [9] is Homo sapiens. The data set can be described thus: Protein binding in human plasma assessed as free drug level. The conditions noted are these: read-out: PPB.
The nature of data set [10]: Cytotoxicity against Huh7 cells. The class given is cell-based, Huh-7. The conditions noted are these: human.

Usually IC50 stands for the concentration needed to halve the response being measured. Read a low IC50 as inhibition by little substance. The EC50 is the concentration giving half of the maximal effect. As usually defined, the half-life is the time in which the quantity being followed falls by half. The term AUC denotes the area under the concentration-time curve, a measure of exposure. Higher therefore signals high exposure. In general, bioavailability refers to the share of a dose that reaches the circulation, judged against a reference dose that is usually intravenous. A higher bioavailability goes with good availability. One may read the pKa as the negative logarithm of the acid dissociation constant. The CC50 is the concentration at which the toxic effect on the cells reaches its halfway point. Lower therefore signals harm at low concentration.

The source made the active and inactive calls. The rule behind the calls is not given here.

In the case of `CCS(=O)(=O)NC(=O)c1ccc2c(C3CCCCC3)c(-c3ccccc3)n(CC(=O)N(C)C)c2c1`, 46 nM corresponded to half-maximal inhibition in data set [1] (IC50). The values for the EC50 in data set [2] and in [6] were 2100 nM and 520 nM, respectively. In addition, the half-life in data set [3] is 2 h. This compound also gave a clearance in [4] of 51 mL/min/kg. For the same compound, the AUC in data set [5] was 1 µM·h.

Turning to `CCS(=O)(=O)NC(=O)c1ccc2c(C3CCCCC3)c(-c3ccccc3)n(CC(=O)N(C)C)c2c1.O=C(O)C(F)(F)F`, the bioavailability in data set [7] was determined as 24%.

With `CN(C)C(=O)Cn1c(-c2ccccc2)c(C2CCCCC2)c2ccc(C(=O)O)cc21`, the IC50 in data set [1] is 86 nM. Moreover, the EC50 in [2] turned out to be 1500 nM. In [3], the half-life was 5 h. In data set [4], this compound registered a clearance of 32 mL/min/kg. In addition, in data set [5], the exposure (AUC) was 2 µM·h. This compound gave a pKa in data set [8] of 4.8.

In data set [1], `CN(C)C(=O)Cn1c(-c2ccccc2)c(C2CCCCC2)c2ccc(C(=O)NS(=O)(=O)Cc3ccccc3)cc21` had an IC50 of 31 nM. The EC50 was 5000 nM in data set [2] and 150 nM in data set [6]. Further, the fraction unbound in data set [9] was under 0.001.

In turn, `CN(C)CCS(=O)(=O)NC(=O)c1ccc2c(C3CCCCC3)c(-c3ccccc3)n(CC(=O)N(C)C)c2c1` came in with an IC50 in [1] of 31 nM. The results for the EC50 in data set [2] and in [6] were 5400 nM and 2000 nM, respectively. Further, the fraction unbound in data set [9] was found to be 0.019.

In turn, `CN(C)C1CCN(C(=O)Cn2c(-c3ccc(Cl)cc3)c(C3CCCCC3)c3ccc(-c4noc(=O)[nH]4)cc32)CC1` had an IC50 in data set [1] of 17 nM. Further, the EC50 in data set [2] was determined as 1900 nM.

Take `CN(C)C1CCN(C(=O)Cn2c(-c3cnn(C)c3)c(C3CCCCC3)c3ccc(-c4noc(=O)[nH]4)cc32)CC1`: the midpoint of inhibition in [1], the IC50, lay at 170 nM. Moreover, the EC50 in [2] was over 50000 nM. The fraction unbound in data set [9] was 0.094.

`CCS(=O)(=O)NC(=O)c1ccc2c(C3CCCCC3)c(-c3ccc(OC)cc3)n(CC(=O)N(C)C)c2c1` came in with an IC50 in data set [1] of 11 nM. Moreover, the EC50 in data set [2] worked out at 1500 nM.

The compound `CN(C)C(=O)Cn1c(-c2ccoc2)c(C2CCCCC2)c2ccc(C(=O)NS(=O)(=O)CC(=O)O)cc21` had a 50% inhibitory concentration (IC50) in data set [1] of 19 nM. In [2], the EC50 turned out to be 560 nM. The fraction unbound in data set [9] was 0.01.

For `CN(C)C(=O)Cn1c(-c2ccccc2)c(C2CCCCC2)c2ccc(-c3noc(=O)[nH]3)cc21.O=C(O)C(F)(F)F`, the bioavailability in [7] stood at 20%.

`CN(C)C(=O)Cn1c(-c2ccccc2)c(C2CCCCC2)c2ccc(-c3noc(=O)[nH]3)cc21` registered a 50% inhibitory concentration (IC50) in data set [1] of 68 nM. Moreover, the EC50 in data set [2] came out at 4400 nM. In data set [3], the half-life is 13 h. Moreover, the clearance in data set [4] was determined as 12 mL/min/kg. Also, in data set [5], the AUC was determined as 2 µM·h. The compound also showed a pKa in data set [8] of 4.8. For the same compound, the fraction unbound in data set [9] was found to be 0.001.

For the compound `Cc1ccccc1-c1c(C2CCCCC2)c2ccc(-c3noc(=O)[nH]3)cc2n1CC(=O)N1CCC(N(C)C)CC1`, the IC50 in data set [1] amounted to 300 nM. Also, the 50% effective concentration (EC50) in data set [2] was determined as 17000 nM.

Consider `CN1CCC(N(C)C(=O)Cn2c(-c3ccccc3)c(C3CCCCC3)c3ccc(-c4noc(=O)[nH]4)cc32)C1` (stereo unspecified), for which the IC50 in data set [1] is 75 nM. Besides, in data set [2], the EC50 worked out at 1600 nM.

For `CN(C)C(=O)Cn1c(-c2ccoc2)c(C2CCCCC2)c2ccc(C(=O)NS(=O)(=O)N(C)C)cc21`, the IC50 in data set [1] was 14 nM. Also, the 50% effective concentration (EC50) in data set [2] is 380 nM. For the same compound, in data set [9], the fraction unbound amounted to 0.011.

As for `CN(C)CC1CN(C(=O)Cn2c(-c3ccoc3)c(C3CCCCC3)c3ccc(-c4noc(=O)[nH]4)cc32)CCO1` (stereo unspecified), in data set [1], the 50% inhibitory concentration (IC50) was 26 nM. Besides, in data set [2], the EC50 came out at 1100 nM.

As to `CN(C)C(=O)Cn1c(-c2ccccc2)c(C2CCCCC2)c2ccc(C(=O)NS(=O)(=O)c3ccccc3)cc21`, in [1], it took 11 nM to reach half-maximal inhibition (IC50). In addition, the EC50 amounted to 3900 nM in [2] and 130 nM in data set [6]. Further, the fraction unbound in data set [9] stood at 0.003.

Consider `CN(C)C(=O)Cn1c(-c2cccnc2)c(C2CCCCC2)c2ccc(-c3noc(=O)[nH]3)cc21`, for which it took 780 nM to reach half-maximal inhibition in data set [1] (IC50). For the same compound, the EC50 in [2] was found to be 20000 nM.

Regarding `CN(C)C(=O)Cn1c(-c2ccccc2)c(C2CCCCC2)c2ccc(C(=O)NS(=O)(=O)CC(=O)O)cc21`, in data set [1], the midpoint of inhibition, the IC50, lay at 29 nM. Moreover, the EC50 in data set [2] was 1600 nM.

Regarding `COc1cccc(-c2c(C3CCCCC3)c3ccc(-c4noc(=O)[nH]4)cc3n2CC(=O)N2CCC(N(C)C)CC2)c1`, in data set [1], the IC50 was 67 nM. Also, in [2], the concentration giving a half-maximal response (EC50) was 3700 nM.

Take `CCN(CC)C1CCN(C(=O)Cn2c(-c3ccoc3)c(C3CCCCC3)c3ccc(C(=O)NS(=O)(=O)N(C)C)cc32)CC1`: 4 nM corresponded to half-maximal inhibition in [1] (IC50). Besides, the 50% effective concentration (EC50) in data set [2] stood at 120 nM. In data set [10], this compound returned a CC50 of 50000 nM.

Compound `CCS(=O)(=O)NC(=O)c1ccc2c(C3CCCCC3)c(-c3ccoc3)n(CC(=O)N(C)C)c2c1` gave an IC50 in data set [1] of 22 nM. Further, the EC50 in data set [2] came to 1500 nM. The fraction unbound in [9] was 0.008.

As to `CN(C)C(=O)Cn1c(-c2ccccc2)c(C2CCCCC2)c2ccc(C(=O)NS(=O)(=O)N(C)C)cc21`, in data set [1], 9 nM corresponded to half-maximal inhibition (IC50). The EC50 in data set [2] came out at 710 nM. The fraction unbound in [9] was 0.008.

In data set [1], `CN(C)C1CCN(C(=O)Cn2c(-c3ccccc3)c(C3CCCCC3)c3ccc(-c4noc(=O)[nH]4)cc32)CC1` showed an IC50 of 59 nM. Also, the EC50 in [2] is 1300 nM.

Compound `CN(C)C1CCN(C(=O)Cn2c(-c3ccccc3F)c(C3CCCCC3)c3ccc(-c4noc(=O)[nH]4)cc32)CC1` yielded an IC50 in data set [1] of 53 nM. The EC50 in data set [2] was 2400 nM.

The compound `CN(C)C(=O)Cn1c(-c2ccccc2)c(C2CCCCC2)c2ccc(C(=O)O)cc21.O=C(O)C(F)(F)F` returned a bioavailability in [7] of 45%.

`CN(C)C(=O)Cn1c(-c2ccccc2)c(C2CCCCC2)c2ccc(C(=O)N(C)S(=O)(=O)Cc3ccccc3)cc21` showed an IC50 in [1] of 640 nM. In data set [2] (Hepacivirus hominis), the result was inactive. Further, the fraction unbound in data set [9] was 0.001.

Regarding `CCN(CC)CC1CN(C(=O)Cn2c(-c3ccc(OC)cc3)c(C3CCCCC3)c3ccc(C(=O)NS(=O)(=O)CC)cc32)CCO1` (stereo unspecified), in data set [1], the IC50 came out at 9 nM. Also, in [2], the EC50 turned out to be 340 nM. The CC50 in data set [10] is 50000 nM.

`CN1CCCC(CN(C)C(=O)Cn2c(-c3ccccc3)c(C3CCCCC3)c3ccc(-c4noc(=O)[nH]4)cc32)C1` (stereo unspecified): in [1], it took 47 nM to reach half-maximal inhibition (IC50). Further, the concentration for a half-maximal effect (EC50) in data set [2] was 1100 nM. In addition, in data set [9], the fraction unbound came to 0.021.
